Experiments:
[1] = n-octanol: buffer pH 7.4; cited from earlier work
[2] = pH 3 to 9; cited from earlier work
[3] = Stress degradation of plain TEL drug, stability indicating HPLC method; type: physicochemical

- reduction in area (HPLC) ([3]; 1 N NaOH at 80° C. for 8 hours): 64.4%
- TEL degradation ([3]; pH modifiers employed in low concentration): no TEL degradation was observed
SMILES: CCCc1nc2c(C)cc(-c3nc4ccccc4n3C)cc2n1Cc1ccc(-c2ccccc2C(=O)O)cc1 [TEL, Telmisartan]
- partition coefficient, log P [1]: 3.2
- solubility [2]: poorly soluble
